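Step 1: Grow cells in 96-well plates. Step 2: Expose to compound for 48 hours at 5 concentrations. Step 3: Interpolate endpoints linearly; if unreached, use highest concentration. GI50 marks 50% less growth. At the TGI there is no net growth.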
Tests used:
Assay in all cases: NCI tumour cell line growth inhibition, 48 h
[1] = test system: 786-0 renal
[2] = test system: A549 NSCLC
[3] = test system: ACHN renal
[4] = test system: BT-549 breast
[5] = test system: CAKI-1 renal
[6] = test system: DU-145 prostate
[7] = test system: EKVX NSCLC
[8] = test system: HCT-15 colon
[9] = test system: HL-60(TB) leukemia
[10] = test system: HOP-92 NSCLC
[11] = test system: HS 578T breast
[12] = test system: HT29 colon
[13] = test system: IGROV1 ovarian
[14] = test system: LOX IMVI melanoma
[15] = test system: NCI-H522 lung
[16] = test system: NCI/ADR-RES ovarian
[17] = test system: OVCAR-3 ovarian
[18] = test system: OVCAR-4 ovarian
[19] = test system: OVCAR-5 ovarian
[20] = test system: OVCAR-8 ovarian
[21] = test system: PC-3 prostate
[22] = test system: RPMI-8226 leukemia
[23] = test system: RXF 393 renal
[24] = test system: SF-268 CNS
[25] = test system: SF-295 CNS
[26] = test system: SF-539 CNS
[27] = test system: SK-MEL-2 melanoma
[28] = test system: SK-MEL-28 melanoma
[29] = test system: SN12C renal
[30] = test system: SNB-19 CNS
[31] = test system: SNB-75 CNS
[32] = test system: SR leukemia
[33] = test system: T-47D breast
[34] = test system: TK-10 renal
[35] = test system: UACC-62 melanoma
[36] = test system: UO-31 renal

COc1cc(/C=C2\CN(S(=O)(=O)c3ccccc3)C/C(=C\c3cc(CN4CCCC4)c(O)c(OC)c3)C2=O)cc(CN2CCCC2)c1O
GI50 [1]: 1.86 µM | TGI [1]: 4.32 µM | GI50 [2]: 3.61 µM | TGI [2]: > 100 µM | GI50 [3]: 1.99 µM | TGI [3]: 4.94 µM | GI50 [4]: 1.99 µM | TGI [4]: 5.14 µM | GI50 [5]: 1.83 µM | TGI [5]: 5.21 µM | GI50 [6]: 0.542 µM | TGI [6]: 1.91 µM | GI50 [7]: 1.14 µM | TGI [7]: 3.53 µM | GI50 [8]: 2.3 µM | TGI [8]: 7.6 µM | GI50 [9]: 0.513 µM | TGI [9]: 2.73 µM | GI50 [10]: 1.51 µM | TGI [10]: 4.69 µM | GI50 [11]: 2.52 µM | TGI [11]: 7.22 µM | GI50 [12]: 0.252 µM | TGI [12]: 1.65 µM | GI50 [13]: 1.54 µM | TGI [13]: 3.29 µM | GI50 [14]: 0.332 µM | TGI [14]: 1.14 µM | GI50 [15]: 0.318 µM | TGI [15]: 2.11 µM | GI50 [16]: > 100 µM | TGI [16]: > 100 µM | GI50 [17]: 1.02 µM | TGI [17]: 3.05 µM | GI50 [18]: 1.27 µM | TGI [18]: 3.09 µM | GI50 [19]: 1.91 µM | TGI [19]: 3.86 µM | GI50 [20]: 1.31 µM | TGI [20]: > 100 µM | GI50 [21]: 1.41 µM | TGI [21]: 3.91 µM | GI50 [22]: 1.55 µM | TGI [22]: 5.03 µM | GI50 [23]: 1.27 µM | TGI [23]: 2.8 µM | GI50 [24]: 1.45 µM | TGI [24]: 4.06 µM | GI50 [25]: 1.55 µM | TGI [25]: 3.64 µM | GI50 [26]: 1.64 µM | TGI [26]: 3.31 µM | GI50 [27]: 2.03 µM | TGI [27]: 5.02 µM | GI50 [28]: 1.88 µM | TGI [28]: 3.56 µM | GI50 [29]: 1.08 µM | TGI [29]: 3.22 µM | GI50 [30]: 1.49 µM | TGI [30]: 3.08 µM | GI50 [31]: 1.27 µM | TGI [31]: 2.71 µM | GI50 [32]: 0.458 µM | TGI [32]: > 100 µM | GI50 [33]: 3.76 µM | TGI [33]: > 100 µM | GI50 [34]: 3.18 µM | TGI [34]: 7.73 µM | GI50 [35]: 1.61 µM | TGI [35]: 3.24 µM | GI50 [36]: 1.92 µM | TGI [36]: 5.31 µM

From PubChem BioAssay (NCI)
